Measured values from ChEMBL document CHEMBL2384946 (Bioorg Med Chem, 2013).

What was measured:
Rattus norvegicus = species on record: Rattus norvegicus; test: Selectivity ratio of Ki for rat cloned dopamine D2L receptor to Ki for rat cloned dopamine D3 receptor
D(2) dopamine receptor [1] = target: D(2) dopamine receptor (Rattus norvegicus, UniProt P61169); test: Displacement of [3H]spiperone from rat cloned dopamine D2L receptor expressed in HEK293 cells after 1 hr; assay type: cell-based
D(3) dopamine receptor [2] = target: D(3) dopamine receptor (Rattus norvegicus, UniProt P19020); test: Displacement of [3H]spiperone from rat cloned dopamine D3 receptor expressed in HEK293 cells after 1 hr; assay type: cell-based
D(3) dopamine receptor [3] = target: D(3) dopamine receptor (Homo sapiens, UniProt P35462); test: Agonist activity at human dopamine D3 receptor expressed in CHO cells assessed as stimulation of [35S]GTPgammaS binding after 60 mins by scintillation counting analysis; assay type: functional, cell-based
D(2) dopamine receptor [4] = target: T1, D(2) dopamine receptor (Homo sapiens, UniProt P14416); test: Agonist activity at human dopamine D2L receptor expressed in CHO cells assessed as stimulation of [35S]GTPgammaS binding after 60 mins by scintillation counting analysis; assay type: functional, cell-based
D(2) dopamine receptor [5] = target: T1, D(2) dopamine receptor; test: Agonist activity at human dopamine D2L receptor expressed in CHO cells assessed as stimulation of [35S]GTPgammaS binding after 60 mins by scintillation counting analysis relative to dopamine; assay type: functional, cell-based

Chain of D(2) dopamine receptor (Rattus norvegicus, UniProt P61169) (P61169 whole entry): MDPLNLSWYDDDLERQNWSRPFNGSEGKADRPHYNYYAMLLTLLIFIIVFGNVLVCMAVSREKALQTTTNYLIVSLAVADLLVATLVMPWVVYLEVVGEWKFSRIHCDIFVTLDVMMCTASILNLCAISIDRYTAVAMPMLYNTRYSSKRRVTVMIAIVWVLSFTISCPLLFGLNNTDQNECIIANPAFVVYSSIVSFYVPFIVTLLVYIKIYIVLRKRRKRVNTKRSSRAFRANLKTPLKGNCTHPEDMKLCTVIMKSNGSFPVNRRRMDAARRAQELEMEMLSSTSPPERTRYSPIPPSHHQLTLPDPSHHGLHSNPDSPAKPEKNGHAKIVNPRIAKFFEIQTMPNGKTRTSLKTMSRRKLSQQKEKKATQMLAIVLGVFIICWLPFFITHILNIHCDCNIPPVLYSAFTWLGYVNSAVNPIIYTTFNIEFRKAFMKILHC
Chain of D(3) dopamine receptor (Rattus norvegicus, UniProt P19020) (P19020 whole entry): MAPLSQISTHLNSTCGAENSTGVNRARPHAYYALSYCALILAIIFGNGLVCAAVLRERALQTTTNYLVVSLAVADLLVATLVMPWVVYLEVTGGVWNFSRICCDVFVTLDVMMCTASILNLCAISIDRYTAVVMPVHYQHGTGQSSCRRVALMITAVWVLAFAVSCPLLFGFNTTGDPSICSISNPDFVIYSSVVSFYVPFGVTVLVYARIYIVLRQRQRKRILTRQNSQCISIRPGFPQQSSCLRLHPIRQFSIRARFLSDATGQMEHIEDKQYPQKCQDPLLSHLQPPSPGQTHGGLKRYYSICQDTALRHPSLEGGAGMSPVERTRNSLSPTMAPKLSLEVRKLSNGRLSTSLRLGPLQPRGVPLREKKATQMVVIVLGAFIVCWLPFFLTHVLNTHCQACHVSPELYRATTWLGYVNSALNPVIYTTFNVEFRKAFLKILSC
Chain of D(3) dopamine receptor (Homo sapiens, UniProt P35462) (P35462 whole entry): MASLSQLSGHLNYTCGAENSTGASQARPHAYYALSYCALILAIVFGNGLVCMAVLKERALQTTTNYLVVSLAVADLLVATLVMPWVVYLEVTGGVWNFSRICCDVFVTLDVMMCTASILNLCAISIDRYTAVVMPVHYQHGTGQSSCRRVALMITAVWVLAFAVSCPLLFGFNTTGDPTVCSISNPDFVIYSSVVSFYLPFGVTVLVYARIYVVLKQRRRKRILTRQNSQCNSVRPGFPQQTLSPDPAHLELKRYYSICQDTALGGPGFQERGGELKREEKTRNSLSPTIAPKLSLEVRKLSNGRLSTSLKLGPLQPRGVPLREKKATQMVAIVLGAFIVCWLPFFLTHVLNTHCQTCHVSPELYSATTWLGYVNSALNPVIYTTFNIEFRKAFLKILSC
T1 sequence (P14416 whole entry): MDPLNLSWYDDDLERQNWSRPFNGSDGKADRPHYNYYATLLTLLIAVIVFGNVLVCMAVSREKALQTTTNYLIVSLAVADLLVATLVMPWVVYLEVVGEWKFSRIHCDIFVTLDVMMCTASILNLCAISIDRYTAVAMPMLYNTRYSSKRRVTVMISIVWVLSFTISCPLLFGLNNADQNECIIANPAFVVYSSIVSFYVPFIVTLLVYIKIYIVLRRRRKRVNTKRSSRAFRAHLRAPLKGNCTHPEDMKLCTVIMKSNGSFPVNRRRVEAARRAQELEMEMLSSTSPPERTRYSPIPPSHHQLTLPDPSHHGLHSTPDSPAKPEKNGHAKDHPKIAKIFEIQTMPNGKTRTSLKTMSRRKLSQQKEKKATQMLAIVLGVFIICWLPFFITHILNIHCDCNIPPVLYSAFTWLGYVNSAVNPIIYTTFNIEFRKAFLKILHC

Structure (SMILES)	Ratio Ki (Rattus norvegicus)	Ki (D(2) dopamine receptor [1]) [nM]	Ki (D(3) dopamine receptor [2]) [nM]	EC50 (D(3) dopamine receptor [3]; cho)	EC50 (D(2) dopamine receptor [4]; cho)	EC50 (D(3) dopamine receptor [3]; read-out: EC50) [nM]	EC50 (D(2) dopamine receptor [4]; read-out: EC50) [nM]	Emax (D(2) dopamine receptor [5]) [%]
CCCN(CCN1CCN(c2ccccc2)CC1)C1CCc2ccc(NC(C)=O)cc2C1 (centres undefined)	7.44	1300	174	–	–	–	–	–
CCCN(CCN1CCN(c2ccccc2)CC1)[C@H]1CCc2ccc(N)cc2C1	–	2710	45.5	–	–	–	–	–
CCCN(CCN1CCN(c2ccccc2)CC1)[C@@H]1CCc2ccc(NS(=O)(=O)c3ccc(OC)cc3)cc2C1	–	101	2.32	Not Active	Not Active	–	–	–
CCCN(CCN1CCN(c2ccccc2)CC1)C1CCc2ccc(NS(=O)(=O)c3ccc(C(F)(F)F)cc3)cc2C1 (centres undefined)	10.6	91.2	8.64	–	–	–	–	–
CCCN(CCN1CCN(c2ccccc2)CC1)C1CCc2ccc(N)cc2C1 (racemic)	–	638	22.2	–	–	–	–	–
CCCN(CCN1CCN(c2ccccc2OC)CC1)C1CCc2cc3[nH]c(=S)[nH]c3cc2C1 (centres undefined)	2.05	230	112	–	–	–	–	–
CCCN(CCN1CCN(c2ccccc2)CC1)C1CCc2ccc(NS(=O)(=O)c3ccc(C)cc3)cc2C1 (centres undefined)	10.6	39.2	3.69	–	–	–	–	–
CCCN(CCN1CCN(c2ccccc2)CC1)C1CCc2cc3[nH]c(N)nc3cc2C1 (centres undefined)	8.89	–	–	–	–	–	–	–
CCCN(CCN1CCN(c2ccccc2)CC1)C1CCc2ccc(NS(=O)(=O)c3ccc(Cl)cc3)cc2C1 (centres undefined)	17.5	72.4	4.13	–	–	–	–	–
CCCN(CCN1CCN(c2ccccc2)CC1)[C@H]1CCc2c(cccc2OS(=O)(=O)c2ccc(C)cc2)C1	19.8	632	32	–	–	–	–	–
CCCN(CCN1CCN(c2ccccc2)CC1)[C@@H]1CCc2ccc(N)cc2C1	–	601	20.2	–	–	30.3	179	36.8
CCCN(CCN1CCN(C(=O)c2cc3ccccc3[nH]2)CC1)C1CCc2nc(N)sc2C1 (centres undefined)	–	1070	1.84	–	–	0.26	–	101
CCCN(CCN1CCN(c2ccccc2OC)CC1)C1CCc2cc3[nH]cnc3cc2C1 (centres undefined)	22.5	443	19.7	–	–	–	–	–
CCCN(CCN1CCN(c2nccc3ccccc23)CC1)[C@H]1CCc2nc(N)sc2C1	121	–	–	–	–	–	–	–
CCCN(CCN1CCN(c2ccccc2OC)CC1)C1CCc2cc3[nH]c(=O)[nH]c3cc2C1 (centres undefined)	2.14	417	195	–	–	–	–	–
CCCN(CCN1CCN(c2ccccc2)CC1)C1CCc2ccc3nc[nH]c3c2C1 (centres undefined)	9.61	520	54.1	–	–	–	–	–
CCCN(CCN1CCN(c2ccccc2)CC1)[C@H]1CCc2c(cccc2OS(=O)(=O)c2ccc(OC)cc2)C1	–	497	17.6	Not Active	Not Active	–	–	–
CCCN(CCN1CCN(c2ccccc2)CC1)C1CCc2cc3[nH]cnc3cc2C1 (centres undefined)	21.3	1280	60	–	–	–	–	–
CCCN(CCN1CCN(c2ccccc2)CC1)C1CCc2ccc(NC(=O)c3ccccc3)cc2C1 (centres undefined)	5.72	624	109	–	–	–	–	–
CCCN(CCN1CCN(c2ccccc2)CC1)C1CCc2ccc(NS(=O)(=O)c3ccc(OC)cc3)cc2C1 (racemic)	–	64.9	2.22	–	–	–	–	–
CCCN(CCN1CCN(c2ccccc2)CC1)C1CCc2cc3cc[nH]c3cc2C1 (centres undefined)	11.9	127	10.7	–	–	–	–	–
CCCN(CCN1CCN(c2ccccc2)CC1)[C@@H]1CCc2ccc(OS(=O)(=O)c3ccc(OC)cc3)cc2C1	40	1080	26.9	–	–	–	–	–
